Assay results from PubChem BioAssay (NCI).
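Here, GI50 denotes the concentration required for 50% inhibition of growth. At the TGI there is no net growth.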

Columns and labels:
Test in all cases: inhibition of tumour cell growth, NCI panel, 384-well format
786-0 renal = tested on: 786-0 renal
A549 NSCLC = tested on: A549 NSCLC
ACHN renal = tested on: ACHN renal
BT-549 breast = tested on: BT-549 breast
CAKI-1 renal = tested on: CAKI-1 renal
CCRF-CEM leukemia = tested on: CCRF-CEM leukemia
COLO 205 colon = tested on: COLO 205 colon
DU-145 prostate = tested on: DU-145 prostate
EKVX NSCLC = tested on: EKVX NSCLC
HCC-2998 colon = tested on: HCC-2998 colon
HCT-15 colon = tested on: HCT-15 colon
HL-60(TB) leukemia = tested on: HL-60(TB) leukemia
HOP-62 NSCLC = tested on: HOP-62 NSCLC
HOP-92 NSCLC = tested on: HOP-92 NSCLC
HS 578T breast = tested on: HS 578T breast
HT29 colon = tested on: HT29 colon
IGROV1 ovarian = tested on: IGROV1 ovarian
KM12 colon = tested on: KM12 colon
M14 melanoma = tested on: M14 melanoma
MALME-3M melanoma = tested on: MALME-3M melanoma
MCF7 breast = tested on: MCF7 breast
MDA-MB-231 breast = tested on: MDA-MB-231 breast
MDA-MB-435 melanoma = tested on: MDA-MB-435 melanoma
MDA-MB-468 breast = tested on: MDA-MB-468 breast
MOLT-4 leukemia = tested on: MOLT-4 leukemia
NCI-H226 lung = tested on: NCI-H226 lung
NCI-H23 lung = tested on: NCI-H23 lung
NCI-H322M lung = tested on: NCI-H322M lung
NCI-H460 NSCLC = tested on: NCI-H460 NSCLC
NCI-H522 lung = tested on: NCI-H522 lung
NCI/ADR-RES ovarian = tested on: NCI/ADR-RES ovarian
OVCAR-3 ovarian = tested on: OVCAR-3 ovarian
OVCAR-4 ovarian = tested on: OVCAR-4 ovarian
OVCAR-5 ovarian = tested on: OVCAR-5 ovarian
OVCAR-8 ovarian = tested on: OVCAR-8 ovarian
PC-3 prostate = tested on: PC-3 prostate
RPMI-8226 leukemia = tested on: RPMI-8226 leukemia
RXF 393 renal = tested on: RXF 393 renal
SF-268 CNS = tested on: SF-268 CNS
SF-295 CNS = tested on: SF-295 CNS
SF-539 CNS = tested on: SF-539 CNS
SK-MEL-2 melanoma = tested on: SK-MEL-2 melanoma
SK-MEL-28 melanoma = tested on: SK-MEL-28 melanoma
SK-MEL-5 melanoma = tested on: SK-MEL-5 melanoma
SK-OV-3 ovarian = tested on: SK-OV-3 ovarian
SN12C renal = tested on: SN12C renal
SNB-19 CNS = tested on: SNB-19 CNS
SNB-75 CNS = tested on: SNB-75 CNS
SR leukemia = tested on: SR leukemia
SW-620 colon = tested on: SW-620 colon
T-47D breast = tested on: T-47D breast
TK-10 renal = tested on: TK-10 renal
U251 glioblastoma = tested on: U251 glioblastoma
UACC-257 melanoma = tested on: UACC-257 melanoma
UACC-62 melanoma = tested on: UACC-62 melanoma

`Nc1ccn([C@@H]2S[C@H](CO)[C@@H](O)[C@@H]2F)c(=O)n1` gave a GI50 (786-0 renal) of 0.0442 µM, a TGI (786-0 renal) of 0.319 µM and a GI50 (A549 NSCLC) of 0.0571 µM. It also gave a TGI (A549 NSCLC) greater than 100 µM, a GI50 (ACHN renal) of 0.0238 µM and a TGI (ACHN renal) of 0.0566 µM. The GI50 (BT-549 breast) was 0.0226 µM, the TGI (BT-549 breast) was 0.192 µM and the GI50 (CAKI-1 renal) was 0.0373 µM. For the same compound, the TGI (CAKI-1 renal) was 0.797 µM, the GI50 (CCRF-CEM leukemia) was less than 0.01 µM and the TGI (CCRF-CEM leukemia) was 0.0122 µM. It also gave a GI50 (COLO 205 colon) of 0.0493 µM, a TGI (COLO 205 colon) of 0.277 µM and a GI50 (DU-145 prostate) of 0.0243 µM. For the same compound, the TGI (DU-145 prostate) was 0.0712 µM, the GI50 (EKVX NSCLC) was 0.434 µM and the TGI (EKVX NSCLC) was greater than 100 µM. It also gave a GI50 (HCC-2998 colon) of 0.0152 µM, a TGI (HCC-2998 colon) of 0.255 µM and a GI50 (HCT-15 colon) of 0.0557 µM. The TGI (HCT-15 colon) was greater than 100 µM, the GI50 (HL-60(TB) leukemia) was 0.0203 µM and the TGI (HL-60(TB) leukemia) was 0.039 µM. It also gave a GI50 (HOP-62 NSCLC) of 0.0143 µM, a TGI (HOP-62 NSCLC) of 0.0548 µM and a GI50 (HOP-92 NSCLC) of 0.0252 µM. It also gave a TGI (HOP-92 NSCLC) of 9.02 µM, a GI50 (HS 578T breast) of 0.0532 µM and a TGI (HS 578T breast) greater than 100 µM. It also gave a GI50 (HT29 colon) of 0.116 µM, a TGI (HT29 colon) of 15.6 µM and a GI50 (IGROV1 ovarian) of 0.31 µM. It also gave a TGI (IGROV1 ovarian) of 57.5 µM, a GI50 (KM12 colon) of 0.0862 µM and a TGI (KM12 colon) greater than 100 µM. It also gave a GI50 (M14 melanoma) of 0.0387 µM, a TGI (M14 melanoma) of 0.163 µM and a GI50 (MALME-3M melanoma) of less than 0.01 µM. For the same compound, the TGI (MALME-3M melanoma) was 0.316 µM, the GI50 (MCF7 breast) was 0.0909 µM and the TGI (MCF7 breast) was greater than 100 µM. The GI50 (MDA-MB-231 breast) was 0.0203 µM, the TGI (MDA-MB-231 breast) was 0.6 µM and the GI50 (MDA-MB-435 melanoma) was 0.383 µM. The TGI (MDA-MB-435 melanoma) was greater than 100 µM, the GI50 (MDA-MB-468 breast) was 0.0617 µM and the TGI (MDA-MB-468 breast) was 0.624 µM. For the same compound, the GI50 (MOLT-4 leukemia) was less than 0.01 µM, the GI50 (NCI-H226 lung) was 0.0849 µM and the TGI (NCI-H226 lung) was 0.32 µM. It also gave a GI50 (NCI-H23 lung) of 0.0237 µM, a TGI (NCI-H23 lung) of 0.0645 µM and a GI50 (NCI-H322M lung) of 0.179 µM. For the same compound, the TGI (NCI-H322M lung) was 50.4 µM, the GI50 (NCI-H460 NSCLC) was 0.024 µM and the TGI (NCI-H460 NSCLC) was 0.091 µM. The GI50 (NCI-H522 lung) was 0.0116 µM, the TGI (NCI-H522 lung) was 0.095 µM and the GI50 (NCI/ADR-RES ovarian) was 0.0165 µM. For the same compound, the TGI (NCI/ADR-RES ovarian) was 0.0481 µM, the GI50 (OVCAR-3 ovarian) was 0.0473 µM and the TGI (OVCAR-3 ovarian) was 6.89 µM. It also gave a GI50 (OVCAR-4 ovarian) greater than 100 µM, a TGI (OVCAR-4 ovarian) greater than 100 µM and a GI50 (OVCAR-5 ovarian) of 0.15 µM. The GI50 (OVCAR-8 ovarian) was 0.0134 µM, the TGI (OVCAR-8 ovarian) was 0.0352 µM and the GI50 (PC-3 prostate) was 0.0559 µM. It also gave a TGI (PC-3 prostate) greater than 100 µM, a GI50 (RPMI-8226 leukemia) of 0.194 µM and a TGI (RPMI-8226 leukemia) of 0.449 µM. It also gave a GI50 (RXF 393 renal) of 0.0774 µM, a TGI (RXF 393 renal) of 0.767 µM and a GI50 (SF-268 CNS) of 0.14 µM. For the same compound, the TGI (SF-268 CNS) was 0.349 µM, the GI50 (SF-295 CNS) was 0.143 µM and the TGI (SF-295 CNS) was 0.46 µM. The GI50 (SF-539 CNS) was 0.138 µM, the TGI (SF-539 CNS) was 0.352 µM and the GI50 (SK-MEL-2 melanoma) was 0.0565 µM. The TGI (SK-MEL-2 melanoma) was 0.201 µM, the GI50 (SK-MEL-28 melanoma) was 0.0743 µM and the TGI (SK-MEL-28 melanoma) was 0.672 µM. It also gave a GI50 (SK-MEL-5 melanoma) of 0.0536 µM, a TGI (SK-MEL-5 melanoma) of 0.252 µM and a GI50 (SK-OV-3 ovarian) of 0.0242 µM. The TGI (SK-OV-3 ovarian) was 0.182 µM, the GI50 (SN12C renal) was 0.0238 µM and the TGI (SN12C renal) was 0.0695 µM. For the same compound, the GI50 (SNB-19 CNS) was 0.0225 µM, the TGI (SNB-19 CNS) was 0.387 µM and the GI50 (SNB-75 CNS) was 0.054 µM. It also gave a TGI (SNB-75 CNS) of 2.68 µM, a GI50 (SR leukemia) of 0.139 µM and a TGI (SR leukemia) of 0.271 µM. It also gave a GI50 (SW-620 colon) of 0.25 µM, a TGI (SW-620 colon) greater than 100 µM and a GI50 (T-47D breast) of 0.31 µM. The TGI (T-47D breast) was 35.5 µM, the GI50 (TK-10 renal) was greater than 100 µM and the TGI (TK-10 renal) was greater than 100 µM. The GI50 (U251 glioblastoma) was 0.172 µM, the TGI (U251 glioblastoma) was 0.572 µM and the GI50 (UACC-257 melanoma) was 0.318 µM. The TGI (UACC-257 melanoma) was 7.78 µM, the GI50 (UACC-62 melanoma) was 0.184 µM and the TGI (UACC-62 melanoma) was 0.443 µM.
